From ChEMBL document CHEMBL3045169, “In vitro evaluation of the antibacterial and antifungal activity of some new pyrazolyl-quinazolin-4(3H)-one derivatives” (2012)

Legend:
Type in all cases: functional
Staphylococcus aureus [1] = experiment: Antibacterial activity against Staphylococcus aureus ATCC 9144 at 100 ug/ml by agar cup-plate method; settings: read-out: IZ
Candida albicans [2] = experiment: Antifungal activity against Candida albicans ATCC 10231 at 20 ug/ml by agar cup-plate method; settings: read-out: IZ
Escherichia coli [3] = experiment: Antibacterial activity against Escherichia coli ATCC 25922 at 50 ug/ml by agar cup-plate method; settings: read-out: IZ
Escherichia coli [4] = experiment: Antibacterial activity against Escherichia coli ATCC 25922 by agar cup-plate method relative to penicillin-G; parameters: concentration or dose not given beside the values
Pseudomonas aeruginosa [5] = experiment: Antibacterial activity against Pseudomonas aeruginosa ATCC 9027 at 50 ug/ml by agar cup-plate method; settings: read-out: IZ
Escherichia coli [6] = experiment: Antibacterial activity against Escherichia coli ATCC 25922 at 100 ug/ml by agar cup-plate method; settings: read-out: IZ
Bacillus subtilis [7] = experiment: Antibacterial activity against Bacillus subtilis ATCC 6633 at 50 ug/ml by agar cup plate method; settings: read-out: IZ
Aspergillus niger [8] = experiment: Antifungal activity against Aspergillus niger ATCC 6275 at 20 ug/ml by agar cup-plate method; settings: read-out: IZ
Pseudomonas aeruginosa [9] = experiment: Antibacterial activity against Pseudomonas aeruginosa ATCC 9027 at 100 ug/ml by agar cup-plate method; settings: read-out: IZ
Aspergillus niger [10] = experiment: Antifungal activity against Aspergillus niger ATCC 6275 by agar cup-plate method relative to fluconazole; parameters: concentration or dose not given beside the values
Aspergillus niger [11] = experiment: Antifungal activity against Aspergillus niger ATCC 6275 at 10 ug/ml by agar cup-plate method; settings: read-out: IZ
Pseudomonas aeruginosa [12] = experiment: Antibacterial activity against Pseudomonas aeruginosa ATCC 9027 by agar cup-plate method relative to penicillin-G; parameters: concentration or dose not given beside the values
Bacillus subtilis [13] = experiment: Antibacterial activity against Bacillus subtilis ATCC 6633 at 100 ug/ml by agar cup plate method; settings: read-out: IZ
Staphylococcus aureus [14] = experiment: Antibacterial activity against Staphylococcus aureus ATCC 9144 by agar cup-plate method relative to penicillin-G; parameters: concentration or dose not given beside the values
Candida albicans [15] = experiment: Antifungal activity against Candida albicans ATCC 10231 by agar cup-plate method relative to fluconazole; parameters: concentration or dose not given beside the values
Staphylococcus aureus [16] = experiment: Antibacterial activity against Staphylococcus aureus ATCC 9144 at 50 ug/ml by agar cup-plate method; settings: read-out: IZ
Bacillus subtilis [17] = experiment: Antibacterial activity against Bacillus subtilis ATCC 6633 by agar cup plate method relative to penicillin-G; parameters: concentration or dose not given beside the values
Candida albicans [18] = experiment: Antifungal activity against Candida albicans ATCC 10231 at 10 ug/ml by agar cup-plate method; settings: read-out: IZ

Compound	zone of inhibition at 100 µg/mL (Staphylococcus aureus [1]) [mm]	zone of inhibition at 20 µg/mL (Candida albicans [2]) [mm]	zone of inhibition at 50 µg/mL (Escherichia coli [3]) [mm]	Activity (Escherichia coli [4]) [%]	zone of inhibition at 50 µg/mL (Pseudomonas aeruginosa [5]) [mm]	zone of inhibition at 100 µg/mL (Escherichia coli [6]) [mm]	zone of inhibition at 50 µg/mL (Bacillus subtilis [7]) [mm]	zone of inhibition at 20 µg/mL (Aspergillus niger [8]) [mm]	zone of inhibition at 100 µg/mL (Pseudomonas aeruginosa [9]) [mm]	Activity (Aspergillus niger [10]) [%]	zone of inhibition at 10 µg/mL (Aspergillus niger [11]) [mm]	Activity (Pseudomonas aeruginosa [12]) [%]	zone of inhibition at 100 µg/mL (Bacillus subtilis [13]) [mm]	Activity (Staphylococcus aureus [14]) [%]	Activity (Candida albicans [15]) [%]	zone of inhibition at 50 µg/mL (Staphylococcus aureus [16]) [mm]	Activity (Bacillus subtilis [17]) [%]	zone of inhibition at 10 µg/mL (Candida albicans [18]) [mm]
O=c1c2cc(I)ccc2nc(Cc2ccccc2Nc2ccccc2)n1NC1=NNC(c2cccc(Cl)c2)C1 (centres undefined)	6	16	0	40.81	0	6	0	15	6	53.99	12	44.72	6	44.39	59.53	0	41.49	14
COc1ccccc1C1CC(Nn2c(Cc3ccccc3Nc3ccccc3)nc3ccc(I)cc3c2=O)=NN1 (centres undefined)	9	6	13	52.45	13	16	8	6	17	41.3	0	63.19	10	36.21	45.11	7	38.97	0
O=c1c2cc(I)ccc2nc(Cc2ccccc2Nc2ccccc2)n1NC1=NNC(c2ccc(Cl)cc2)C1 (centres undefined)	6	18	0	40.81	0	6	0	17	7	58.12	15	48.61	6	44.39	67.26	0	41.49	16
O=c1c2cc(I)ccc2nc(Cc2ccccc2Nc2ccccc2)n1NC1=NNC(c2ccc([N+](=O)[O-])cc2)C1 (centres undefined)	15	16	12	54.75	14	16	13	15	17	51.52	13	61.15	16	55.57	59.53	11	58.83	14
CC1(C)S[C@@H]2[C@H](NC(=O)Cc3ccccc3)C(=O)N2[C@H]1C(=O)O [PENICILLIN G]	30		25		23	31	21		28				27			25		
OC(Cn1cncn1)(Cn1cncn1)c1ccc(F)cc1F [FLUCONAZOLE]		26						28			22							21
